Literature values as cited in paper PMC6784077 (Viruses, 2019).

enfuvirtide
t1/2: ~ 1.5 h
